This note sets out measurements from patent publication US4762843A, “Hetero [f] fused carbocyclic pyridines as dopaminergic agents” (Warner-Lambert Company, priority 1987, dated 1988).

The subject of experiment [1] is locomotor activity in mice. As to the kind of experiment: Inhibition of locomotor activity in mice. The class given is in vivo. The settings on record: Mus musculus, read-out: Inhibition of Locomotor Activity in Mice (ED50). As for the experimental part:
(§1) The compounds of formula I are valuable dopaminergic agents. […] Thus, the compounds of formula I were tested for their ability to inhibit locomotor activity in mice according to the assay described in Pharmacol. Biochem. Behav. 1978 (8) 97; for their ability to inhibit haloperidol binding in a receptor binding assay described in Mol. Pharmacol. 1976 (12) 800; and for their ability to inhibit dopamine synthesis in rats according to the protocol described in Naumyn-Schmiedeberg's Arch. Pharmacol., 1976 (296) 5. The above test methods are incorporated herein by reference.

In experiment [2] the test system is dopamine synthesis. As to the kind of experiment: Inhibition of dopamine synthesis in rats. The settings on record: Rattus norvegicus, read-out: Percent Inhibition of Dopamine Synthesis. In kind it is in vivo. The procedure:
as §1

The target of experiment [3] is T1, haloperidol binding (Bos taurus, UniProt P20288).
T1 construct: from tissue
Nature of the experiment: Inhibition of haloperidol binding in a receptor binding assay. The settings on record: read-out: Percent Inhibition Haloperidol Binding. As for the experimental part:
as §1

Where a name gives a salt, the structure may show the parent alone. Read-outs that look alike come from different tables or passages of the source.

T1 sequence (P20288 whole entry): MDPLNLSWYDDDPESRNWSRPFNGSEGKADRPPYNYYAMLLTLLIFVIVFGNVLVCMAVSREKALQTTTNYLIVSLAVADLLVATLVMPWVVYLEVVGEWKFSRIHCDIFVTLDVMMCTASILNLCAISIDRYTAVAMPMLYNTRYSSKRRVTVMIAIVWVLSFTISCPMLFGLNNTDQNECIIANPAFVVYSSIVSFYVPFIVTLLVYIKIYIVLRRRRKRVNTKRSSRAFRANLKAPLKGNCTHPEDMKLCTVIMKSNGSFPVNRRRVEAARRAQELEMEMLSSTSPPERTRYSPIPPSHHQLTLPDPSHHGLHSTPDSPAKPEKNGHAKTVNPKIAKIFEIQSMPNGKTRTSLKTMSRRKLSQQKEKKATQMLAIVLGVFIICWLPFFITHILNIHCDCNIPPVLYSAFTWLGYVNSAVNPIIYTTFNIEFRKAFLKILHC

In general, ED50 refers to the midpoint of the dose-response relation. By inhibition is commonly meant the drop in the measured response relative to a control, in per cent. In the case of `CCCN1CCC=C2c3nc(N)sc3CCC21` (racemic) [Example 5, (±) 4,5,5a,6,7,8-Hexahydro-6-propylthiazolo[4,5-f]quinolin-2-amine], the ED50 in experiment [1] (ip) was found to be 5.5 mg/kg. Moreover, in experiment [2], the inhibition at 5 mg/kg was 53%. In experiment [3], the inhibition at 1 µM was determined as 43%.

As to `CN1CCC=C2c3nc(N)sc3CCC21` (racemic) [Example 5a, (±) 4,5,5a,6,7,8-Hexahydro-6-methylthiazolo[4,5-f]quinolin-2-amine], in experiment [1] (ip), the ED50 turned out to be 2.6 mg/kg. Besides, the inhibition at 10 mg/kg in experiment [2] came to 92%. In experiment [3], the inhibition at 5 µM came out at 62%.

With `CCN1CCC=C2c3nc(N)sc3CCC21` (racemic) [Example 5b, (±) 6-Ethyl-4,5,5a,6,7,8-hexahydrothiazolo[4,5-f]quinolin-2-amine], the ED50 in experiment [1] (ip) amounted to 0.62 mg/kg. Further, the inhibition at 1 mg/kg in experiment [2] is 60%. Besides, the inhibition at 5 µM in experiment [3] was 68%.

For `CCCCN1CCC=C2c3nc(N)sc3CCC21` (racemic) [Example 5c, (±) 6-Butyl-4,5,5a,6,7,8-hexahydrothiazolo[4,5-f]quinolin-2-amine, dihydrochloride, hemihydrate], the ED50 in experiment [1] (ip) was found to be 14.7 mg/kg. Further, in experiment [2], the inhibition at 10 mg/kg came to 18%. Also, the inhibition at 10 µM in experiment [3] came to 70%.

`C=CCN1CCC=C2c3nc(N)sc3CCC21` (racemic) [Example 5d, (±) 4,5,5a,6,7,8-Hexahydro-6-(2-propenyl)thiazolo [4,5-f]quinolin-2-amine, dihydrochloride]: the ED50 in experiment [1] (ip) was determined as 0.24 mg/kg. The inhibition at 5 mg/kg in experiment [2] was 100%.

In the case of `Nc1nc2c(s1)CCC1C2=CCCN1CC1CC1` (racemic) [Example 5e, (±) 6-(Cyclopropylmethyl)-4,5,5a,6,7,8-hexahydrothiazolo[4,5-f]quinolin-2-amine, dihydrochloride], the ED50 in experiment [1] (ip) came to 12 mg/kg. Besides, the inhibition at 1 µM in experiment [3] turned out to be 62%.

Turning to `Nc1nc2c(s1)CCC1C2=CCCN1CCc1ccccc1` (racemic) [Example 5f, (±) 4,5,5a,6,7,8-Hexahydro-6-(2-phenylethyl)thiazolo [4,5-f]quinolin-2-amine], the ED50 in experiment [1] (mice, IP) is 31.3 mg/kg. Besides, in experiment [3] (at 5 × 10^-6 M), the inhibition at 5 µM is 67%.

Consider `Nc1nc2c(s1)CCC1C2=CCCN1Cc1ccccc1` (racemic) [Example 5g, (±) 4,5,5a,6,7,8-Hexahydro-6-(phenylmethyl)thiazolo [4,5-f]quinolin-2-amine, dihydrochloride, hydrate], for which the ED50 in experiment [1] (mice, IP) was 26.1 mg/kg. Moreover, in experiment [3] (at 5 × 10^-6 M), the inhibition at 5 µM is 61%.

Turning to `CCCN1CCC=C2c3nc(NC(C)=O)sc3CCC21` (racemic) [Example 15a, (±) N-(4,5,5a,6,7,8-Hexahydro-6-propylthiazolo[4,5-f]quinolin-2-yl)acetamide], the ED50 in experiment [1] (mice, IP) was found to be 16.3 mg/kg. Also, the inhibition at 5 µM in experiment [3] (at 5 × 10^-6 M) was 23%.

As for `C=CCN1CCC=C2c3nc(NC(C)=O)sc3CCC21` (racemic) [Example 15b, (±) N-[4,5,5a,6,7,8-Hexahydro-6-(2-propenyl)thiazolo [4,5-f]quinolin-2-yl]acetamide], the ED50 in experiment [1] (mice, IP) is 3.1 mg/kg. The inhibition at 5 mg/kg in experiment [2] (rats, at 5 mg/kg) was 82%. The inhibition at 10 µM in experiment [3] (at 1 × 10^-5) stood at 21%.

Take `CCCN1CCC[C@H]2c3sc(N)nc3CC[C@@H]21` (racemic) [Example 17, (±) trans-4,5,5a,6,7,8,9,9a-Octahydro-6-propylthiazolo[5,4-f]quinolin-2-amine]: the ED50 in experiment [1] (ip) amounted to 0.7 mg/kg. In experiment [2], the inhibition at 5 mg/kg was 100%. Besides, the inhibition at 1 µM in experiment [3] was found to be 37%.

Consider `Nc1nc2c(s1)CCC1NCCC=C21` (racemic) [Example 40, (±) 4,5,5a,6,7,8-Hexahydrothiazolo[4,5-f]quinolin-2-amine, dihydrochloride], for which, in experiment [1] (ip), the ED50 was found to be 11.6 mg/kg. Besides, the inhibition at 10 mg/kg in experiment [2] turned out to be 44%. Moreover, in experiment [3], the inhibition at 5 µM is 77%.

In the case of `CCCN1CCC=C2c3nc(N)sc3CCC21` (single isomer, unassigned; (+)) [Example 16, (+) 4,5,5a,6,7,8-hexahydro-6-propylthiazolo[4,5-f]quinolin-2-amine, dihydrochloride], in experiment [1] (ip), the ED50 turned out to be 2.5 mg/kg. The inhibition at 3 mg/kg in experiment [2] was found to be 100%. Besides, the inhibition at 5 µM in experiment [3] is 76%.
